Reference: patent publication US20260265675A1, “Methods for Enhanced Gene Expression in Microorganisms” (ALGAE-C INC., priority 2023, published 2026)

Key:
Assay type in all cases: cell-based, Chlamydomonas reinhardtii
mVenus [1] = assay: mVenus expression after 6-day treatment with SAHA analogs and other HDAC inhibitors (96 well liquid culture, flow cytometry and plate reader); conditions: for expression of the transgene: mVenus transgene in Chlamydomonas reinhardtii, compared with other histone deacetylase inhibitors; for frequency of mVenus-positive cells / increase of amount of mVenus inside each cell (mean fluorescence intensity) / increase of frequency of mVenus-positive cells: day 3 post-treatment
Procedure: For the SAHA (vorinostat), belinostat, dacinostat, panobinostat, mocetinostat, entinostat, and romidepsin series of treatments (comparison between various SAHA analogs and other HDAC inhibitors), inoculums of 10^5 cells in late exponential phase of growth were transferred in 200 μL of TAP medium in 96 well plates and were treated with 5 μM of each histone deacetylase inhibitor for 6 days. DMSO was used as a negative control.
(§1) Growth curves were obtained using a Synergy H1 plate reader (Biotek, Agilent), from two or three biological replicates for each strain studied as in (Molino et al., 2022). For SAHA main treatments, 250 μL samples of 50 mL cultures were added in 96 well flat bottom microplates (Corning Costar 96-Well, Cell Culture-Treated, Fisher Scientifics). The OD absorbance was read at 750 nm. Bottom read scan mode mean fluorescence was measured with Excitation (Ex): 500 nm/Emission (Em): 541 nm for mVenus; and bottom read fluorescence Ex: 475 nm/Em: 650 nm for chlorophyll.
(§2) A Cytomics FC500 cytometer equipped with Argon (488 nm) and HeNe (633 nm) lasers were used to measure mVenus emission on the FL1 channel (525/15 nm), and chloroplast fluorescence on the FL4 channel (675/15 nm) (Beckman Coulter Life Sciences). At least 10 000 events were acquired. A homogeneous cloud of intact cells was first gated based on size (FSC) and granulosity (SSC). Then a daughter gate selected the cloud of cells with homogenous chlorophyll autofluorescence. The % of mVenus^+ cells was measured on this daughter population with a gate in the FL1 channel that excluded cells with autofluorescence levels similar to the negative controls. Cells were considered mVenus^+ when both the % of gated mVenus^+ cells (and >0.1%) and mVenus mean fluorescence intensity were higher than the values of the WT controls. Propidium iodide (Thermo Fisher) was used to verify viability and acquired on the FL3 channel (620/20 nm). To select for palmelloid cells, a second gate that included events with a minimum of 2-fold increase in FSC mean intensity was drawn, similarly to (Cheloni and Slaveykova, 2021). In that case, cells were acquired on a Beckman Cytoflex S equipped with violet (405 nm), blue (488 nm), yellow-green (561 nm) and red (638 nm) lasers. Chlorophyll autofluorescence was detected in the PerCP channel (690/50 nm), mVenus on the FITC (525/40BP). Statistics were obtained using BD FlowJo version 10 software (BD Biosciences, La Jolla, CA, USA, 2020).

mVenus [2] = assay: mVenus expression by flow cytometry after 24 h treatment with silencing inhibitors (96 well liquid culture)
Procedure: For the sirtinol, SAHA, OSS-128167, nicotinamide and sodium butyrate series of treatments (comparison between various HDAC inhibitors), inoculums of 10^5 cells in late exponential phase of growth were transferred in 200 μL of TAP medium in 96 well plates and were treated with 50 μM, 2.5 μM, 100 μM, 1 mM and 5 mM of each histone deacetylase inhibitor respectively for 24 hours; a mix of all inhibitors was also tested. DMSO was used as a negative control.
as §2

mVenus [3] = assay: mVenus expression followed over 12 days after SAHA treatment in flask cultures (microplate reader and flow cytometer)
Procedure: (§3) For the SAHA main treatments, inoculum of 10^5 cells in late exponential phase of growth were transferred in 50 mL of TAP medium in 125 mL shake flasks and were treated with 5 μM for 12 days (to evaluate mVenus expression overtime), or with 2.5, 5 and 10 μM for 6 days (to evaluate SAHA toxicity over cell viability). DMSO was used as a negative control.
as §1, §2

C. reinhardtii [4] = assay: Cell viability (membrane integrity) by propidium iodide staining, flow cytometry; conditions: SAHA 2.5, 5 and 10 μM, day 6
Procedure: as §3
as §2, with “To select for palmelloid cells, a second gate that included events with a minimum of 2-fold increase in FSC mean intensity was drawn, similarly to (Cheloni and Slaveykova, 2021). In that case, cells were acquired on a Beckman Cytoflex S equipped with violet (405 nm), blue (488 nm), yellow-green (561 nm) and red (638 nm) lasers.” left out, “Statistics were obtained using BD FlowJo version 10 software (BD Biosciences, La Jolla, CA, USA, 2020).” left out

C. reinhardtii [5] = assay: Palmelloid colony formation and motility (microscopy, flow cytometry)
Procedure: as §3, §2

C. reinhardtii [6] = assay: Growth curve / growth kinetic (OD 750 nm)
Procedure: […] DMSO was used as a negative control.
as §1

mVenus mRNA = mVenus mRNA relative expression by RT-qPCR (normalized on histone H3); conditions: day 6
Procedure: 4 mL of a 6 days C. reinhardtii grown culture were harvested and centrifuged in Eppendorf tube for 5 min at 4000 g. Cells were lysed by immersion in liquid nitrogen for 1 min. Total RNA was extracted using Invitrogen™ TRIzol™ reagent (Life technologies, Thermo Fisher Scientifics) according to the manufacturer's protocol with minor modifications, including the addition of NaCl at a final concentration of 100 mM in the isopropanol at the nucleic acids precipitation step. Samples were further treated with Turbo DNase (Invitrogen™ TURBO DNA-free™ Kit, Thermo Fisher Scientifics) according to the manufacturer's instructions. RNA yield and quality were determined with 260 nm/280 nm absorbance ratio obtained on a Nanodrop instrument (Thermo Fisher Scientific). Samples of <100 ng total RNA were subjected to reverse transcription and qPCR amplification in a single reaction using the Luna® Universal One-Step RT-qPCR Kit Protocol (New England Biolabs Canada). Briefly, 1 μl of RNA were subjected to reverse transcription performed at 55° C. for 10 minutes. Initial denaturation was 1 min at 95° C. followed by 45 cycles of denaturation for 10 seconds, extension for 30 seconds at 60° C. […] SYBR Green fluorescence was recorded in the FAM channel of a CFX connect real time system (BioRad). […] Relative mRNA expression levels were determined according to the 2^(−ddCt) method.

mVenus [7] = assay: mVenus expression after one year of storage, 72 h treatment with histone deacetylase inhibitors (flow cytometry); conditions: SAHA 5 μM, cells stored for one year after transformation
From the text: as §2, with “Statistics were obtained using BD FlowJo version 10 software (BD Biosciences, La Jolla, CA, USA, 2020).” left out

C. reinhardtii [8] = assay: Chlorophyll content observed by culture colour at higher SAHA concentrations
[9] = SAHA 2.5 μM, transformed clones
[10] = SAHA 5 μM, compared to untreated or DMSO treated cells

With `O=C(/C=C/c1cccc(S(=O)(=O)Nc2ccccc2)c1)NO` [Belinostat, (2E)-N-Hydroxy-3-[3-(phenylsulfamoyl)phenyl]prop-2-enamide] the “expression of the transgene” value (mVenus [1]) was “substantially increase”.

`Cc1[nH]c2ccccc2c1CCNCc1ccc(/C=C/C(=O)NO)cc1` [Panobinostat, (2E)-N-hydroxy-3-[4-({[2-(2-methyl-1H-indol-3-yl)ethyl]amino}methyl)phenyl]acrylamide] was tested, and the “expression of the transgene” value (mVenus [1]) was “substantially increase”.

In the case of `O=C(/C=C/c1ccc(CN(CCO)CCc2c[nH]c3ccccc23)cc1)NO` [Dacinostat, (E)-N-hydroxy-3-[4-[[2-hydroxyethyl-[2-(1H-indol-3-yl)ethyl]amino]methyl]phenyl]prop-2-enamide], the “expression of the transgene” value (mVenus [1]) was “substantially increase”.

`O=C(CCCCCCC(=O)Nc1ccccc1)NO` [SAHA, N-hydroxy-N′-phenyloctanediamide] was tested, and the “frequency of cells expressing mVenus” value (mVenus [2]; [9]) was “increased”, the “level of expression of mVenus per cell” value (mVenus [2]; [9]) was “increased” and the “% of mVenus cells” value (mVenus [2]; clone 16, SAHA 2.5 μM) was 68.1%. The “increase in protein expression (mean fluorescence intensity)” value (mVenus [2]; clone 16, SAHA 2.5 μM) was 4.6 fold, the “increase of % of mVenus cells” value (mVenus [2]; clone 16, SAHA 2.5 μM, versus 13.3% without SAHA) was 5.1 fold and the “frequency of mVenus-positive cells” value (mVenus [1]; clone 16, 5 μM) was 73.1%. The “increase of amount of mVenus inside each cell (mean fluorescence intensity)” value (mVenus [1]; clone 16, 5 μM) was 3-4 fold, the “increase of frequency of mVenus-positive cells” value (mVenus [1]; clone 16, 5 μM) was 8.6 fold and the “frequency of mVenus-positive cells” value (mVenus [1]; clone 17, 5 μM) was 59.9%. For the same molecule, the “increase of amount of mVenus inside each cell (mean fluorescence intensity)” value (mVenus [1]; clone 17, 5 μM) was 2-5 fold, the “increase of frequency of mVenus-positive cells” value (mVenus [1]; clone 17, 5 μM) was 27 fold and the “expression of the transgene” value (mVenus [1]) was “substantially increase”. For the same molecule, the mVenus fluorescence (mVenus [3]; SAHA 5 μM at day 0, around day 4-5, all clones) was “steadily increased”, the “transgene expression over culture period” value (mVenus [3]; SAHA 5 μM, 12 days, flask cultures) was “steadily increases” and the “decline in mVenus production in stationary phase” value (mVenus [3]; SAHA 5 μM, around day 7-8) was “did not prevent the progressive decline in production”. For the same molecule, the “mVenus fluorescence per cell at day 12” value (mVenus [3]; [10]) was “more mVenus fluorescence per cells”, the “population of mVenus expressing cells at day 12” value (mVenus [3]; [10]) was “more frequent population of mVenus expressing cells” and the “% of producing cells (mVenus+) at maximum production” value (mVenus [3]; SAHA 5 μM, day 5-7, all the clones) was “more than 74%”. The “time of maximum production of mVenus” value (mVenus [3]; SAHA 5 μM, end of the exponential phase) was 5 to 7 days, the “% mVenus+ cells at day 12” value (mVenus [3]; SAHA 5 μM, most clones (except 16)) was less than 10% and the “% of PI+ cells” value (C. reinhardtii [4]) was “slightly increased”. The “% of transformant cells remaining intact” value (C. reinhardtii [4]) was ~ 90%, the “palmelloid colonies quantified by flow cytometry” value (C. reinhardtii [5]; SAHA 5 μM, day 3 and 6 post-treatment, in most cases) was “increased” and the “palmelloid colonies (microscopy)” value (C. reinhardtii [5]; SAHA 5 and 10 μM, 6 days) was “accumulation of small palmelloid colonies”. For the same molecule, the “palmelloid colonies (microscopy)” value (C. reinhardtii [5]; SAHA 20, 40 and 80 μM, increasing concentrations) was “Larger palmelloid colonies”, the motility (C. reinhardtii [5]; SAHA above 2.5 μM) was “progressively lost” and the “phenotype induced in C. reinhardtii” value (C. reinhardtii [5]; SAHA, FIG. 6) was “induces a palmelloid phenotype”. For the same molecule, the growth kinetic (C. reinhardtii [6]; 80 μM SAHA) was “totally inhibited”, the growth kinetic (C. reinhardtii [6]; 20 and 40 μM SAHA) was “inhibited partially” and the “overall growth of microalgae” value (C. reinhardtii [6]; SAHA 5 μM, 12 days) was “did not impact the overall growth”. The “increase of relative mVenus mRNA expression over histone H3 mRNA” value (mVenus mRNA; clone 16, SAHA 5 μM) was 7 fold, the “increase of relative mVenus mRNA expression over histone H3 mRNA” value (mVenus mRNA; clone 17, SAHA 5 μM) was 6.6 fold and the “frequency of cells expressing mVenus” value (mVenus [7]) was “increased”. For the same molecule, the “chlorophyll content, culture colour” value (C. reinhardtii [8]; 80 μM SAHA) was “red tint” and the “chlorophyll content, culture colour” value (C. reinhardtii [8]; 20 and 40 μM SAHA) was “more yellow tint”.
